The values that follow come from patent US20230265151A1, “GIP/GLP1 CO-AGONIST COMPOUNDS” (priority 2020, published 2023).

For test [1], the target named is T1, human GLP-1 receptor (hGLP-1R) (Homo sapiens, UniProt P43220).
T1 construct: expressed in transfected cells; crude membranes
The test can be described thus: [125I]-GLP-1 binding, SPA with membranes of HEK293 cells expressing hGLP-1R. Conditions: human GLP-1R; geometric mean (SEM, n); read-out: Binding Affinity Ki, nM (SEM, n) hGLP-1R.

Test [2] concerns the target T2, human GIP receptor (hGIPR) (Homo sapiens, UniProt P48546).
T2 construct: expressed in transfected cells; crude membranes
T2 sequence (P48546 22-466): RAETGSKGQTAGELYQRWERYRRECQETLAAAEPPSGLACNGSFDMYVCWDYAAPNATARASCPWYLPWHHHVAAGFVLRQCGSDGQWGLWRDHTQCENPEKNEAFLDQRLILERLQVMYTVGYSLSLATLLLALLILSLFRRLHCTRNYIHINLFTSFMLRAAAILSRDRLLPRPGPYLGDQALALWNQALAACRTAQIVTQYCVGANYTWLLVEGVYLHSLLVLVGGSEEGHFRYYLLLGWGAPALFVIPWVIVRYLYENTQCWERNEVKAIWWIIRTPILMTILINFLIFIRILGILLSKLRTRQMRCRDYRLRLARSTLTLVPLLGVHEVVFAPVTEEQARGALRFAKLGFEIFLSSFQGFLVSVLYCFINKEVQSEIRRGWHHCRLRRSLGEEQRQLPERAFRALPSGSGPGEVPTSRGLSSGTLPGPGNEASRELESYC
Briefly: [125I]-GIP binding, SPA with membranes of CHO cells expressing hGIPR. Conditions: human GIPR; geometric mean (SEM, n); read-out: Binding Affinity Ki, nM (SEM, n) hGIPR.

Test [3] deals with T3, hGIPR (Homo sapiens, UniProt P48546).
T3 construct: expressed in transfected cells
T3 sequence (P48546 22-466): T2 sequence (P48546 22-466)
The test can be described thus: Functional cAMP formation (HTRF) in HEK-293 clonal cells expressing hGIPR, 0.1% bovine casein, without or with 1.0% human serum albumin. It is filed as cell-based. The following applies: for Emax: read-out: hGIPR Emax, % ± SEM; for EC50: read-out: hGIPR EC50, nM (SEM, n). In short, it runs like this: (§1)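 Cells were stimulated with peptide for 30 min at 37° C, then intracellular cAMP was measured by competitive HTRF (665/620 nm ratio) and converted to nM using a cAMP standard curve. Relative EC50 and Emax came from four-parameter logistic fits of percent maximal response against peptide concentration.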
In general terms: Changes in cAMP serve as a functional read-out for many G protein-coupled receptors.

Test [4] concerns the target T4, hGCGR (Homo sapiens, UniProt P47871).
T4 construct: expressed in transfected cells
Briefly: Functional cAMP formation (HTRF) in HEK-293 clonal cells expressing hGCGR, 0.1% bovine casein, without or with 1.0% human serum albumin. The class given is cell-based. The following applies: read-out: hGCGR EC50, nM (SEM, n). In short, it runs like this: as §1

Test [5] addresses hGLP-1R (Homo sapiens, UniProt P43220). Briefly: Functional cAMP formation (HTRF) in HEK-293 clonal cells expressing hGLP-1R, 0.1% bovine casein, without or with 1.0% human serum albumin. Also noted: expressed in transfected cells. The following applies: 37° C.; for EC50: read-out: hGLP-1R EC50, nM (SEM, n). The class given is cell-based. In short, it runs like this: as §1
The mark [6] stands for this setting: HEK293, cAMP, 37° C., 0.1% bovine casein and 1.0% human serum albumin, percent of maximal response to GIP(1-42)NH2.
[7] abbreviates: cAMP, 37° C., 0.1% bovine casein (no human serum albumin), geometric mean.
[8] abbreviates: cAMP, 37° C., 0.1% bovine casein and 1.0% human serum albumin, geometric mean (SEM, n).
The mark [9] stands for this setting: cAMP, 0.1% bovine casein (no human serum albumin), geometric mean.
The mark [10] stands for this setting: 0.1% bovine casein and 1.0% human serum albumin, 37° C., geometric mean.
[11] abbreviates: cAMP, incubated at 37° C., 0.1% bovine casein (no human serum albumin), geometric mean.

Like-named read-outs stand apart in the source and are kept apart here.

T4 sequence (P47871 26-477): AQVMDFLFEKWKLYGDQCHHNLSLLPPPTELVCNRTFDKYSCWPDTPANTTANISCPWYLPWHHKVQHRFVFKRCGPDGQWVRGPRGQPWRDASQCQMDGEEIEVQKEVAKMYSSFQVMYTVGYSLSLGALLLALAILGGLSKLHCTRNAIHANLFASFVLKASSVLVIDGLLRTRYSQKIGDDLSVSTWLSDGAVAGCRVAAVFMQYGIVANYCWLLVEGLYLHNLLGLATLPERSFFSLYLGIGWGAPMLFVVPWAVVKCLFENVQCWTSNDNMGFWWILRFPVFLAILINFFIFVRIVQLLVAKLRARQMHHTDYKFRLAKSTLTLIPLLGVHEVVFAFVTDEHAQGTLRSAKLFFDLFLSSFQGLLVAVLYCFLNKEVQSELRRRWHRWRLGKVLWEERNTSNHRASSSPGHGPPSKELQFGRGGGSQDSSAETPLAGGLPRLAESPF
Chain of hGLP-1R (P43220 24-463): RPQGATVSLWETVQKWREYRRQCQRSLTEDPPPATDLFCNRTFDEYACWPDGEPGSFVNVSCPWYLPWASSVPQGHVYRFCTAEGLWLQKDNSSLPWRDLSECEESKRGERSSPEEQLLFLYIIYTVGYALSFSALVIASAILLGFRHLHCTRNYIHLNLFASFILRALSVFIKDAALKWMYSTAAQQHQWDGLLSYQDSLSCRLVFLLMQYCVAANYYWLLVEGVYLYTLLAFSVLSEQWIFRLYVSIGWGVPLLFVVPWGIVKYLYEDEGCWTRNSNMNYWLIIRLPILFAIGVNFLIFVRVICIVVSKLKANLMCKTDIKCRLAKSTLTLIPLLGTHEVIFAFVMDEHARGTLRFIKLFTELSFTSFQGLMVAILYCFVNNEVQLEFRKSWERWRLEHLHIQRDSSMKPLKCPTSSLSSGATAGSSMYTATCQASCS
T1 sequence (P43220 24-463): as above

In general, Ki refers to a measure of affinity in units of concentration, obtained from inhibition or displacement. One may read the Emax as the size of the effect at its maximum, as opposed to the concentration needed. Usually EC50 stands for the concentration that produces a half-maximal response. Take `CC[C@H](C)[C@H](NC(=O)[C@H](CC(C)C)NC(=O)[C@](C)(Cc1ccc(O)cc1)NC(=O)[C@H](CCCCNC(=O)COCCOCCNC(=O)CCCCCNC(=O)CC[C@H](NC(=O)CCCCCCCCCCCCC(=O)O)C(=O)O)NC(=O)[C@@H](NC(=O)[C@H](Cc1ccccc1)NC(=O)[C@H](CCCN)NC(=O)C(C)(C)NC(=O)[C@H](CCC(N)=O)NC(=O)[C@H](C)NC(=O)[C@H](CCC(N)=O)NC(=O)[C@H](CCCN)NC(=O)[C@H](CC(=O)O)NC(=O)[C@H](CC(C)C)NC(=O)[C@](C)(CC(C)C)NC(=O)[C@@H](NC(=O)C(C)(C)NC(=O)[C@H](Cc1ccncc1)NC(=O)[C@H](CC(=O)O)NC(=O)[C@H](CO)NC(=O)[C@@H](NC(=O)[C@](C)(Cc1ccccc1F)NC(=O)[C@@H](NC(=O)CNC(=O)[C@H](CCC(=O)O)NC(=O)C(C)(C)NC(=O)[C@@H](N)Cc1ccc(O)cc1)[C@@H](C)O)[C@@H](C)O)[C@@H](C)CC)[C@@H](C)CC)C(=O)N[C@@H](CCCCNC(=O)COCCOCCNC(=O)CCCCCNC(=O)CC[C@H](NC(=O)CCCCCCCCCCCCC(=O)O)C(=O)O)C(=O)NCC(=O)NCC(=O)N1CCC[C@H]1C(=O)N[C@@H](CO)C(=O)N[C@@H](CO)C(=O)NCC(=O)N[C@@H](C)C(=O)N1CCC[C@H]1C(=O)N1CCC[C@H]1C(=O)N1CCC[C@H]1C(=O)N[C@@H](CO)C(N)=O` [Example 449]: the Ki in test [1] amounted to 0.201 nM; in test [2], 0.0133 nM. Further, the Emax in test [3] (setting [6]) is 92.1%; in test [5] (HEK293, cAMP, 0.1% bovine casein, percent of maximal response to GLP-1(7-36)NH2, arithmetic mean, read-out: hGLP-1R Emax, % ± SEM) it was 112%. Further, the EC50 in test [3] (setting [7]) was 0.0102 nM; in test [3] (setting [8]), 0.595 nM; in test [4] (setting [7]) it was greater than 9950 nM; in test [4] (setting [8]), greater than 9950 nM; in test [5] (setting [9]), 0.16 nM.

Take `CCCCCCCCCCCC(=O)N[C@@H](CCC(=O)NCCOCCOCC(=O)NCCOCCOCC(=O)NCCOCCOCC(=O)NCCCC[C@H](NC(=O)[C@H](CCCN)NC(=O)[C@H](CC(=O)O)NC(=O)[C@H](CC(C)C)NC(=O)[C@](C)(CC(C)C)NC(=O)[C@@H](NC(=O)C(C)(C)NC(=O)[C@H](Cc1ccncc1)NC(=O)[C@H](CC(=O)O)NC(=O)[C@H](CO)NC(=O)[C@@H](NC(=O)[C@](C)(Cc1ccccc1F)NC(=O)[C@@H](NC(=O)CNC(=O)[C@H](CCC(=O)O)NC(=O)C(C)(C)NC(=O)[C@@H](N)Cc1ccc(O)cc1)[C@@H](C)O)[C@@H](C)O)[C@@H](C)CC)C(=O)N[C@@H](C)C(=O)N[C@@H](CCC(N)=O)C(=O)NC(C)(C)C(=O)N[C@@H](CCCCNC(=O)COCCOCCNC(=O)COCCOCCNC(=O)COCCOCCNC(=O)CC[C@H](NC(=O)CCCCCCCCCCC)C(=O)O)C(=O)N[C@@H](Cc1ccccc1)C(=O)N[C@H](C(=O)N[C@H](CCC(=O)O)C(=O)N[C@@](C)(Cc1ccc(O)cc1)C(=O)N[C@@H](CC(C)C)C(=O)N[C@H](C(=O)N[C@@H](CCCN)C(=O)NCC(=O)NCC(=O)N1CCC[C@H]1C(=O)N[C@@H](CO)C(=O)N[C@@H](CO)C(=O)NCC(=O)N[C@@H](C)C(=O)N1CCC[C@H]1C(=O)N1CCC[C@H]1C(=O)N1CCC[C@H]1C(=O)N[C@@H](CO)C(N)=O)[C@@H](C)CC)[C@@H](C)CC)C(=O)O` [Example 433]: the results for the Ki in test [1] and in test [2] were 0.187 nM and 0.0175 nM, respectively. Also, the Emax in test [3] (setting [6]) was determined as 100%; in test [3] (HEK293, cAMP, 37° C., 0.1% bovine casein, percent of maximal response to GIP(1-42)NH2, arithmetic mean), 94%. Further, the EC50 was 0.00972 nM in test [3] (setting [7]); greater than 9950 nM in test [4] (setting [7]); greater than 9950 nM in test [4] (setting [8]); 0.128 nM in test [5] (setting [9]); 2.63 nM in test [5] (cAMP, 0.1% bovine casein and 1.0% human serum albumin, geometric mean (SEM, n)).

On to `CCCCCCCCCCCCCCCC(=O)N[C@@H](CCC(=O)NCCOCCOCC(=O)NCCCC[C@H](NC(=O)CNC(=O)CNC(=O)[C@H](CCC(=O)O)NC(=O)[C@@H](NC(=O)[C@H](CC(C)C)NC(=O)[C@](C)(Cc1ccc(O)cc1)NC(=O)[C@@H](CCC(=O)O)NC(=O)[C@@H](NC(=O)[C@H](Cc1ccccc1)NC(=O)[C@H](CCC(=O)O)NC(=O)C(C)(C)NC(=O)[C@H](CCC(N)=O)NC(=O)[C@H](C)NC(=O)[C@H](CCCCNC(=O)COCCOCCNC(=O)CC[C@H](NC(=O)CCCCCCCCCCCCCCC)C(=O)O)NC(=O)[C@H](CCCN)NC(=O)[C@H](CC(=O)O)NC(=O)[C@H](CC(C)C)NC(=O)[C@](C)(CC(C)C)NC(=O)[C@@H](NC(=O)[C@H](CO)NC(=O)[C@H](Cc1ccncc1)NC(=O)[C@H](CC(=O)O)NC(=O)[C@H](CO)NC(=O)[C@@H](NC(=O)[C@](C)(Cc1ccccc1F)NC(=O)[C@@H](NC(=O)CNC(=O)[C@H](CCC(=O)O)NC(=O)C(C)(C)NC(=O)[C@@H](N)Cc1ccc(O)cc1)[C@@H](C)O)[C@@H](C)O)[C@@H](C)CC)[C@@H](C)CC)[C@@H](C)CC)C(=O)N[C@@H](CO)C(=O)N[C@@H](CO)C(=O)NCC(=O)N[C@@H](C)C(=O)N1CCC[C@H]1C(=O)N1CCC[C@H]1C(=O)N1CCC[C@H]1C(=O)N[C@@H](CO)C(N)=O)C(=O)O` [Example 13], for which the inhibition constant (Ki) was 0.691 nM in test [1] and 0.0575 nM in test [2]. Besides, the concentration for a half-maximal effect (EC50) in test [3] (setting [10]) was 1.45 nM; in test [4] (setting [10]), greater than 9950 nM; in test [4] (setting [11]) it was greater than 9950 nM; in test [5] (0.1% bovine casein and 1.0% human serum albumin, geometric mean), 6.79 nM.

Consider `CC[C@H](C)[C@H](NC(=O)[C@H](CC(C)C)NC(=O)[C@](C)(Cc1ccc(O)cc1)NC(=O)[C@@H](CCC(=O)O)NC(=O)[C@@H](NC(=O)[C@H](Cc1ccccc1)NC(=O)[C@H](CCC(=O)O)NC(=O)C(C)(C)NC(=O)[C@H](CCC(N)=O)NC(=O)[C@H](C)NC(=O)[C@H](CCCCNC(=O)COCCOCCNC(=O)COCCOCCNC(=O)CC[C@H](NC(=O)CCCCCCCCCCCCC(=O)O)C(=O)O)NC(=O)[C@H](CCCN)NC(=O)[C@H](CC(=O)O)NC(=O)[C@H](CC(C)C)NC(=O)[C@](C)(CC(C)C)NC(=O)[C@@H](NC(=O)C(C)(C)NC(=O)[C@H](Cc1ccc(O)cc1)NC(=O)[C@H](CC(=O)O)NC(=O)[C@H](CO)NC(=O)[C@@H](NC(=O)[C@](C)(Cc1ccccc1F)NC(=O)[C@@H](NC(=O)CNC(=O)[C@H](CCC(=O)O)NC(=O)C(C)(C)NC(=O)[C@@H](N)Cc1ccc(O)cc1)[C@@H](C)O)[C@@H](C)O)[C@@H](C)CC)[C@@H](C)CC)C(=O)N[C@@H](CCC(=O)O)C(=O)NCC(=O)NCC(=O)N[C@@H](CCCCNC(=O)COCCOCCNC(=O)COCCOCCNC(=O)CC[C@H](NC(=O)CCCCCCCCCCCCC(=O)O)C(=O)O)C(=O)N[C@@H](CO)C(=O)N[C@@H](CO)C(=O)NCC(=O)N[C@@H](C)C(=O)N1CCC[C@H]1C(=O)N1CCC[C@H]1C(=O)N1CCC[C@H]1C(=O)N[C@@H](CO)C(N)=O` [Example 50], for which the Ki came out at 0.876 nM in test [1] and 0.0296 nM in test [2]. In addition, the EC50 is 1.81 nM in test [3] (setting [10]), 0.0168 nM in test [3] (setting [11]), greater than 9950 nM in test [4] (setting [10]) and greater than 9950 nM in test [4] (setting [11]). The maximum response (Emax) was 91.4 ± 4.2% in test [3] (HEK293, 0.1% bovine casein and 1.0% human serum albumin, 37° C., percent of maximal response to GIP(1-42)NH2); 94.7 ± 1.77% in test [3] (HEK293, percent of maximal response to GIP(1-42)NH2, 37° C., 0.1% bovine casein, arithmetic mean).
